Experimental data taken from publication PMC10707982, “Solubility and Thermodynamics Data of Cabozantinib Malate in Various Aqueous Solutions of Dimethyl Sulfoxide at Different Temperatures” (Molecules, 2023).

Experiment: Shake flask solubility of CBZM in DMSO aqueous solutions and pure solvents
Type: physicochemical
Settings: for Experimental mole fraction solubility (xe): 101.1 kPa
Description: A digital analytical balance (Mettler Toledo, Greifensee, Switzerland) with a sensitivity of 0.10 mg was used to measure the mass of each cosolvent mixture. A series of DMSO aqueous solutions (m = 0.10–0.90), were investigated. Three replications of each cosolvent mixture were taken. CBZM’s solubility values in numerous DMSO aqueous solutions (m = 0.0–1.0) and pure solvents were determined utilizing a shake flask methodology at five distinct temperature and fixed atmospheric pressure. Essentially, extra CBZM crystals were mixed with known amounts of each cosolvent mixture and neat solvents in triplicates. All the mixtures were vortexed for about 5 min. To achieve equilibrium, the resulting mixes were transferred to a WiseBath WSB Shaking Water Bath (Model WSB-18/30/-45, Daihan Scientific Co. Ltd., Seoul, Republic of Korea) for 72 h at 100 rpm for continuous shaking. After the samples reached equilibrium, they were removed from the shaker and centrifuged at 5000 rpm for 30 min at 298.2 K. The uncertainty in water bath temperature was recorded as 0.15 K. The equilibrium time of 72 h was optimized by preliminary experiments. Under preliminary experiments, CBZM solubility was measured at 24, 48, […], 72, and 96 h. […] After the supernatants were separated and diluted with mobile phase (if needed), the CBZM content was evaluated at 244 nm using a previously described HPLC technique. By using their standard formulae found in the literature, CBZM xe values were obtained.

SMILES: COc1cc2nccc(Oc3ccc(NC(=O)C4(C(=O)Nc5ccc(F)cc5)CC4)cc3)c2cc1OC [CBZM, Cabozantinib malate]
- Experimental mole fraction solubility (xe) (DMSO mass fraction m = 0.0, T = 298.2 K): 2.24 × 10^−7 mole fraction
- Experimental mole fraction solubility (xe) (DMSO mass fraction m = 0.0, T = 303.2 K): 3.37 × 10^−7 mole fraction
- Experimental mole fraction solubility (xe) (DMSO mass fraction m = 0.0, T = 308.2 K): 4.85 × 10^−7 mole fraction
- Experimental mole fraction solubility (xe) (DMSO mass fraction m = 0.0, T = 313.2 K): 6.55 × 10^−7 mole fraction
- Experimental mole fraction solubility (xe) (DMSO mass fraction m = 0.0, T = 318.2 K): 8.53 × 10^−7 mole fraction
- Experimental mole fraction solubility (xe) (DMSO mass fraction m = 0.1, T = 298.2 K): 7.46 × 10^−7 mole fraction
- Experimental mole fraction solubility (xe) (DMSO mass fraction m = 0.1, T = 303.2 K): 1.12 × 10^−6 mole fraction
- Experimental mole fraction solubility (xe) (DMSO mass fraction m = 0.1, T = 308.2 K): 1.52 × 10^−6 mole fraction
- Experimental mole fraction solubility (xe) (DMSO mass fraction m = 0.1, T = 313.2 K): 2.01 × 10^−6 mole fraction
- Experimental mole fraction solubility (xe) (DMSO mass fraction m = 0.1, T = 318.2 K): 2.55 × 10^−6 mole fraction
- Experimental mole fraction solubility (xe) (DMSO mass fraction m = 0.2, T = 298.2 K): 2.48 × 10^−6 mole fraction
- Experimental mole fraction solubility (xe) (DMSO mass fraction m = 0.2, T = 303.2 K): 3.48 × 10^−6 mole fraction
- Experimental mole fraction solubility (xe) (DMSO mass fraction m = 0.2, T = 308.2 K): 4.69 × 10^−6 mole fraction
- Experimental mole fraction solubility (xe) (DMSO mass fraction m = 0.2, T = 313.2 K): 6.00 × 10^−6 mole fraction
- Experimental mole fraction solubility (xe) (DMSO mass fraction m = 0.2, T = 318.2 K): 7.57 × 10^−6 mole fraction
- Experimental mole fraction solubility (xe) (DMSO mass fraction m = 0.3, T = 298.2 K): 8.00 × 10^−6 mole fraction
- Experimental mole fraction solubility (xe) (DMSO mass fraction m = 0.3, T = 303.2 K): 1.11 × 10^−5 mole fraction
- Experimental mole fraction solubility (xe) (DMSO mass fraction m = 0.3, T = 308.2 K): 1.46 × 10^−5 mole fraction
- Experimental mole fraction solubility (xe) (DMSO mass fraction m = 0.3, T = 313.2 K): 1.83 × 10^−5 mole fraction
- Experimental mole fraction solubility (xe) (DMSO mass fraction m = 0.3, T = 318.2 K): 2.25 × 10^−5 mole fraction
- Experimental mole fraction solubility (xe) (DMSO mass fraction m = 0.4, T = 298.2 K): 2.66 × 10^−5 mole fraction
- Experimental mole fraction solubility (xe) (DMSO mass fraction m = 0.4, T = 303.2 K): 3.48 × 10^−5 mole fraction
- Experimental mole fraction solubility (xe) (DMSO mass fraction m = 0.4, T = 308.2 K): 4.42 × 10^−5 mole fraction
- Experimental mole fraction solubility (xe) (DMSO mass fraction m = 0.4, T = 313.2 K): 5.49 × 10^−5 mole fraction
- Experimental mole fraction solubility (xe) (DMSO mass fraction m = 0.4, T = 318.2 K): 6.59 × 10^−5 mole fraction
- Experimental mole fraction solubility (xe) (DMSO mass fraction m = 0.5, T = 298.2 K): 8.61 × 10^−5 mole fraction
- Experimental mole fraction solubility (xe) (DMSO mass fraction m = 0.5, T = 303.2 K): 1.12 × 10^−4 mole fraction
- Experimental mole fraction solubility (xe) (DMSO mass fraction m = 0.5, T = 308.2 K): 1.38 × 10^−4 mole fraction
- Experimental mole fraction solubility (xe) (DMSO mass fraction m = 0.5, T = 313.2 K): 1.69 × 10^−4 mole fraction
- Experimental mole fraction solubility (xe) (DMSO mass fraction m = 0.5, T = 318.2 K): 1.98 × 10^−4 mole fraction
- Experimental mole fraction solubility (xe) (DMSO mass fraction m = 0.6, T = 303.2 K): 3.47 × 10^−4 mole fraction
- Experimental mole fraction solubility (xe) (DMSO mass fraction m = 0.6, T = 308.2 K): 4.21 × 10^−4 mole fraction
- Experimental mole fraction solubility (xe) (DMSO mass fraction m = 0.6, T = 313.2 K): 4.95 × 10^−4 mole fraction
- Experimental mole fraction solubility (xe) (DMSO mass fraction m = 0.6, T = 318.2 K): 5.79 × 10^−4 mole fraction
- Experimental mole fraction solubility (xe) (DMSO mass fraction m = 0.7, T = 298.2 K): 9.33 × 10^−4 mole fraction
- Experimental mole fraction solubility (xe) (DMSO mass fraction m = 0.7, T = 303.2 K): 1.12 × 10^−3 mole fraction
- Experimental mole fraction solubility (xe) (DMSO mass fraction m = 0.7, T = 308.2 K): 1.31 × 10^−3 mole fraction
- Experimental mole fraction solubility (xe) (DMSO mass fraction m = 0.7, T = 313.2 K): 1.53 × 10^−3 mole fraction
- Experimental mole fraction solubility (xe) (DMSO mass fraction m = 0.7, T = 318.2 K): 1.72 × 10^−3 mole fraction
- Experimental mole fraction solubility (xe) (DMSO mass fraction m = 0.8, T = 298.2 K): 3.09 × 10^−3 mole fraction
- Experimental mole fraction solubility (xe) (DMSO mass fraction m = 0.8, T = 303.2 K): 3.53 × 10^−3 mole fraction
- Experimental mole fraction solubility (xe) (DMSO mass fraction m = 0.8, T = 308.2 K): 3.99 × 10^−3 mole fraction
- Experimental mole fraction solubility (xe) (DMSO mass fraction m = 0.8, T = 313.2 K): 4.55 × 10^−3 mole fraction
- Experimental mole fraction solubility (xe) (DMSO mass fraction m = 0.8, T = 318.2 K): 5.04 × 10^−3 mole fraction
- Experimental mole fraction solubility (xe) (DMSO mass fraction m = 0.9, T = 298.2 K): 1.07 × 10^−2 mole fraction
- Experimental mole fraction solubility (xe) (DMSO mass fraction m = 0.9, T = 303.2 K): 1.15 × 10^−2 mole fraction
- Experimental mole fraction solubility (xe) (DMSO mass fraction m = 0.9, T = 308.2 K): 1.26 × 10^−2 mole fraction
- Experimental mole fraction solubility (xe) (DMSO mass fraction m = 0.9, T = 313.2 K): 1.38 × 10^−2 mole fraction
- Experimental mole fraction solubility (xe) (DMSO mass fraction m = 0.9, T = 318.2 K): 1.52 × 10^−2 mole fraction
- Experimental mole fraction solubility (xe) (DMSO mass fraction m = 1.0, T = 298.2 K): 3.29 × 10^−2 mole fraction
- Experimental mole fraction solubility (xe) (DMSO mass fraction m = 1.0, T = 303.2 K): 3.50 × 10^−2 mole fraction
- Experimental mole fraction solubility (xe) (DMSO mass fraction m = 1.0, T = 308.2 K): 3.78 × 10^−2 mole fraction
- Experimental mole fraction solubility (xe) (DMSO mass fraction m = 1.0, T = 313.2 K): 4.02 × 10^−2 mole fraction
- Experimental mole fraction solubility (xe) (DMSO mass fraction m = 1.0, T = 318.2 K): 4.38 × 10^−2 mole fraction
- Solubility classification in DMSO (neat DMSO, 298.2–318.2 K): freely soluble
- Solubility classification in H2O (neat H2O, 298.2–318.2 K): practically insoluble
